# According to patent US10653647B2 (priority 2003, dated 2020):
# Test system: terminal sensory nerve fibers of rat vulva
# Test: reduction of nerve fiber density in rat vulva, PGP 9.5 immunostaining
# Type: in vivo
# Conditions: 33 μL, 1% (w/v) in DGME applied for 20 minutes, Day 7, statistical significance not established
# Description: Sixty female retired breeder Sprague-Dawley rats were divided into 6 groups. On day 0, rats were anesthetized with isoflurane anesthetic gas and then LMX5® anesthetic cream was applied to the entire vulvar area of each rat at least 30 minutes. The test formulations were applied using a micropipette to dispense 33 μL of each formulation. The formulations applied were diethylene glycol monoethyl ether (DGME) alone; 0.01% capsaicin (w/v) in DGME; 0.1% capsaicin (w/v) in DGME; 1% resiniferatoxin (w/v) in DGME; 3% capsaicin (w/v) in 90% (v/v) DGME and 10% (v/v) DMSO, a 10% capsaicin (w/v) in DGME. The formulations were left on for 20 minutes with the exception of 10% capsaicin (w/v) in DGME which was left on for 5 minutes. The remaining formulation was removed using a cleansing gel (89.08% PEG 300, 1.0% Carbopol 1382™, 0.02% butylated hydroxyanisole, 0.01% disodium edentate, pH 6.5). […] The tissues were evaluated by a board certified veterinary pathologist for (1) any and all lesions, with particular attention to inflammation and any microvascular changes, and (2) the presence, absence and any abnormalities in the architecture of the terminal nerve sensory nerve fibers. For each specimen, nerve fiber functionality was determined by counting the number of nerve fibers observed in at least four microscopical fields (each circular microscopical field has a radius of 90 μm) and then averaged. […]
smiles,measurement,value
C=C(C)[C@]12C[C@@H](C)[C@@]34O[C@](Cc5ccccc5)(O[C@@H]1[C@@H]3C=C(COC(=O)Cc1ccc(O)c(OC)c1)C[C@]1(O)C(=O)C(C)=C[C@@H]41)O2 [resiniferatoxin],decrease in nerve fiber density,28%
